Tested on: Plasmodium berghei
Experiment: Luciferase/luciferin-expressing antifolate-resistant parasites were used to infect a culture of HepG2 cells that were pre-incubated with compounds. Infected hepatocytes emit light due to the luciferase reaction. Assay results are presented as the percent inhibition of light emission compared to control. […]
Format: functional
Details: sporozoite; for IC90: read-out: LUCIFERASE INFECTION ASSAY - IC90

| SMILES | IC90 | other results |
| --- | --- | --- |
| COc1ccc(OC)c(NC(=O)c2cc(-c3cc(Cl)ccc3O)[nH]n2)c1 | > 8.83 µM | IC50 (HEPG2TOX_HILL_SLOPE 2.05, HEPG2TOX_R_SQUARED 0.718, PBLUC_HILL_SLOPE 2.04, PBLUC_R_SQUARED 0.622, read-out: LUCIFERASE INFECTION ASSAY - IC50): 4.02 µM |
| CCc1ccc(CN(C)C(=O)c2cccc(S(=O)(=O)Nc3ccccc3OC)c2)cc1 | > 10 µM | IC50 (HEPG2TOX_HILL_SLOPE 2.04, HEPG2TOX_R_SQUARED 0.142, read-out: LUCIFERASE INFECTION ASSAY - IC50): > 10 µM |
| Oc1ccc2ccccc2c1/C=N/Nc1nnc(-c2ncc[nH]2)c2ccccc12 | 4.64 µM | IC50 (HEPG2TOX_HILL_SLOPE 2.06, HEPG2TOX_R_SQUARED 0.877, PBLUC_HILL_SLOPE 10.4, PBLUC_R_SQUARED 0.915, read-out: LUCIFERASE INFECTION ASSAY - IC50): 3.76 µM |
| CC(C)N1/C(=C\c2ccccc2O)C(=O)c2ccccc2S1(=O)=O | > 9.61 µM | IC50 (HEPG2TOX_HILL_SLOPE 2.04, HEPG2TOX_R_SQUARED 0.975, PBLUC_HILL_SLOPE 1.99, PBLUC_R_SQUARED 0.616, read-out: LUCIFERASE INFECTION ASSAY - IC50): 3.26 µM |
| CCN1C(=O)N(Cc2cccc(OC)c2)C(=O)C12CCN(Cc1cnc(-c3ccccc3)s1)CC2 | > 6.73 µM | IC50 (HEPG2TOX_HILL_SLOPE 2.07, HEPG2TOX_R_SQUARED 0.932, PBLUC_HILL_SLOPE 9.26, PBLUC_R_SQUARED 0.304, read-out: LUCIFERASE INFECTION ASSAY - IC50): 5.74 µM |
| FC(F)(F)Oc1ccc(-c2ccc(OCCCc3ccccn3)nc2)cc1 | > 8.82 µM | IC50 (HEPG2TOX_HILL_SLOPE 2.06, HEPG2TOX_R_SQUARED 0.963, PBLUC_HILL_SLOPE 4.51, PBLUC_R_SQUARED 0.157, read-out: LUCIFERASE INFECTION ASSAY - IC50): 6.75 µM |
| CCOc1ccccc1/C=C/C(=O)OCC(=O)Nc1ccccc1-c1ccccc1 | 3.67 µM | IC50 (HEPG2TOX_HILL_SLOPE 2.07, HEPG2TOX_R_SQUARED 0.949, PBLUC_HILL_SLOPE 25.6, PBLUC_R_SQUARED 0.535, read-out: LUCIFERASE INFECTION ASSAY - IC50): 3.37 µM |
| CCN(CCNc1ncnc2sc(-c3ccccc3)cc12)c1cccc(C)c1 | 3.9 µM | IC50 (HEPG2TOX_HILL_SLOPE 2.04, HEPG2TOX_R_SQUARED 0.0176, PBLUC_HILL_SLOPE 12.8, PBLUC_R_SQUARED 0.373, read-out: LUCIFERASE INFECTION ASSAY - IC50): 3.29 µM |
| O=C(c1cncn1-c1ccccc1)N1CC=C(c2ccccc2)CC1 | > 10 µM | IC50 (HEPG2TOX_HILL_SLOPE 2.04, HEPG2TOX_R_SQUARED 0.78, PBLUC_HILL_SLOPE 1.11, PBLUC_R_SQUARED 0.463, read-out: LUCIFERASE INFECTION ASSAY - IC50): 4.38 µM |
| CNS(=O)(=O)c1ccc(C(=O)Nc2ccc(Nc3ccccc3)cc2)o1 | 1.18 µM | IC50 (HEPG2TOX_HILL_SLOPE 2.07, HEPG2TOX_R_SQUARED 0.347, PBLUC_HILL_SLOPE 43.9, PBLUC_R_SQUARED 0.459, read-out: LUCIFERASE INFECTION ASSAY - IC50): 1.12 µM |
| CC(Sc1nnc(-c2ccccc2)c(-c2ccccc2)n1)C(=O)N1CCCC1 (configuration not stated) | 1.49 µM | IC50 (HEPG2TOX_HILL_SLOPE 2.07, HEPG2TOX_R_SQUARED 0.202, PBLUC_HILL_SLOPE 16.4, PBLUC_R_SQUARED 0.575, read-out: LUCIFERASE INFECTION ASSAY - IC50): 1.3 µM |
| Cc1nc2ccccc2nc1SCC(=O)NC1CCCC(C)C1C (configuration not stated) | 8.45 µM | IC50 (HEPG2TOX_HILL_SLOPE 2.05, HEPG2TOX_R_SQUARED 0.851, PBLUC_HILL_SLOPE 3.81, PBLUC_R_SQUARED 0.351, read-out: LUCIFERASE INFECTION ASSAY - IC50): 4.75 µM |
| O=C1CC(c2ccccc2Br)c2c(ccc3ccccc23)N1 (configuration not stated) | > 9.37 µM | IC50 (HEPG2TOX_HILL_SLOPE 2.07, HEPG2TOX_R_SQUARED 0.801, PBLUC_HILL_SLOPE 1.69, PBLUC_R_SQUARED 0.513, read-out: LUCIFERASE INFECTION ASSAY - IC50): 4.97 µM |
| O=[N+]([O-])c1ccc(NN=C(Cc2ccccc2)Cc2ccccc2)c(S(=O)(=O)Nc2ccccc2Cl)c1 | > 10 µM | IC50 (HEPG2TOX_HILL_SLOPE 2.02, HEPG2TOX_R_SQUARED 0.983, PBLUC_HILL_SLOPE 2.86, PBLUC_R_SQUARED 0.742, read-out: LUCIFERASE INFECTION ASSAY - IC50): 6.11 µM |
| COc1cc(/C=C/C(=O)c2ccc(C3CCCCC3)cc2)cc(Br)c1OCC(=O)N(C)C | 3.59 µM | IC50 (HEPG2TOX_HILL_SLOPE 2.02, HEPG2TOX_R_SQUARED 0.972, PBLUC_HILL_SLOPE 3.75, PBLUC_R_SQUARED 0.69, read-out: LUCIFERASE INFECTION ASSAY - IC50): 2 µM |
| Cc1cc(SCCN)c2cc(F)ccc2n1 | > 14 µM | IC50 (HEPG2TOX_HILL_SLOPE 2.08, HEPG2TOX_R_SQUARED 0.947, PBLUC_HILL_SLOPE 2.61, PBLUC_R_SQUARED 0.644, read-out: LUCIFERASE INFECTION ASSAY - IC50): 6.26 µM |

| SMILES | IC90 | other results |
| --- | --- | --- |
| CCOC(=O)c1sc(N)c(C#N)c1CSc1nnc(-c2ccc(OC)c(OC)c2)o1 | 9.92 µM | IC50 (HEPG2TOX_HILL_SLOPE 2.07, 4.99, HEPG2TOX_R_SQUARED 0.833, 0.121, PBLUC_HILL_SLOPE 3.67, 1.56, PBLUC_R_SQUARED 0.0908, 0.540, read-out: LUCIFERASE INFECTION ASSAY - IC50): 4.06 µM |
| O=C(NC1CC1)c1ccc(-c2cnc3cnc(-c4ccccc4Cl)cn23)cc1 | > 8.49 µM | IC50 (HEPG2TOX_HILL_SLOPE 2.06, HEPG2TOX_R_SQUARED 0.921, PBLUC_HILL_SLOPE 2.15, PBLUC_R_SQUARED 0.563, read-out: LUCIFERASE INFECTION ASSAY - IC50): 4.01 µM |
| c1ccc(-c2csc3ncnc(Sc4ccc5nnnn5n4)c23)cc1 | > 10 µM | IC50 (HEPG2TOX_HILL_SLOPE 2.04, HEPG2TOX_R_SQUARED 0.855, PBLUC_HILL_SLOPE 0.945, PBLUC_R_SQUARED 0.512, read-out: LUCIFERASE INFECTION ASSAY - IC50): 7.55 µM |
| N#C/C(=N\Nc1cc(C(F)(F)F)ccc1OCC(F)(F)F)S(=O)(=O)c1ccccc1 | 0.397 µM | IC50 (HEPG2TOX_HILL_SLOPE 2.04, HEPG2TOX_R_SQUARED 0.948, PBLUC_HILL_SLOPE 1.99, PBLUC_R_SQUARED 0.732, read-out: LUCIFERASE INFECTION ASSAY - IC50): 0.131 µM |
| CC1=NC(C)=C(C#N)C(c2cc(Br)ccc2OC(F)F)C1C#N (configuration not stated) | 4.24 µM | IC50 (HEPG2TOX_HILL_SLOPE 2.06, HEPG2TOX_R_SQUARED 0.906, PBLUC_HILL_SLOPE 11.5, PBLUC_R_SQUARED 0.189, read-out: LUCIFERASE INFECTION ASSAY - IC50): 3.51 µM |
| CCCCn1nc(C)c(/C=C/C(=O)N(CC)CC(=O)NCc2ccc(F)cc2)c1Cl | > 10 µM | IC50 (HEPG2TOX_HILL_SLOPE 2.05, HEPG2TOX_R_SQUARED 0.946, PBLUC_HILL_SLOPE 2.58, PBLUC_R_SQUARED 0.346, read-out: LUCIFERASE INFECTION ASSAY - IC50): 6.71 µM |
| CCCn1c(NC(=O)c2ccc(CS(=O)(=O)c3ccccc3)o2)nc2ccccc21 | 4.08 µM | IC50 (HEPG2TOX_HILL_SLOPE 2.08, HEPG2TOX_R_SQUARED 0.973, PBLUC_HILL_SLOPE 1.97, PBLUC_R_SQUARED 0.429, read-out: LUCIFERASE INFECTION ASSAY - IC50): 1.34 µM |
| COc1ccc(-c2ccc3ncc(-c4ccc5c(c4)OCO5)n3n2)cc1OC | 1.1 µM | IC50 (HEPG2TOX_HILL_SLOPE 2.06, HEPG2TOX_R_SQUARED 0.96, PBLUC_HILL_SLOPE 2.96, PBLUC_R_SQUARED 0.768, read-out: LUCIFERASE INFECTION ASSAY - IC50): 0.524 µM |
| O=C(Nc1ccc(Oc2ccccc2)cc1)c1csc(C(O)c2cccc(Cl)c2)n1 (configuration not stated) | 5.62 µM | IC50 (HEPG2TOX_HILL_SLOPE 2.05, HEPG2TOX_R_SQUARED 0.879, PBLUC_HILL_SLOPE 3.47, PBLUC_R_SQUARED 0.401, read-out: LUCIFERASE INFECTION ASSAY - IC50): 2.99 µM |
| O=C(Nc1ccc2nc(Cc3ccccc3)nn2c1)c1cccc(Cl)c1 | 1.48 µM | IC50 (HEPG2TOX_HILL_SLOPE 2.06, HEPG2TOX_R_SQUARED 0.967, PBLUC_HILL_SLOPE 11.3, PBLUC_R_SQUARED 0.609, read-out: LUCIFERASE INFECTION ASSAY - IC50): 1.22 µM |
| Fc1cccc(-c2nc3ccnc(NCCc4ccccn4)c3[nH]2)c1 | 4.02 µM | IC50 (HEPG2TOX_HILL_SLOPE 2.04, HEPG2TOX_R_SQUARED 0.803, PBLUC_HILL_SLOPE 12.8, PBLUC_R_SQUARED 0.152, read-out: LUCIFERASE INFECTION ASSAY - IC50): 3.38 µM |
| CCOC(=O)c1ccc(N2CCN(C(C)c3nc(C(C)C)no3)CC2)nc1 (configuration not stated) | > 10 µM | IC50 (HEPG2TOX_HILL_SLOPE 2.09, HEPG2TOX_R_SQUARED 0.987, PBLUC_HILL_SLOPE 1.97, PBLUC_R_SQUARED 0.365, read-out: LUCIFERASE INFECTION ASSAY - IC50): 4.25 µM |
| N#C/C(=N\Nc1ccccc1Cl)S(=O)(=O)c1ccc(Cl)cc1 | 4.8 µM | IC50 (HEPG2TOX_HILL_SLOPE 2.02, HEPG2TOX_R_SQUARED 0.971, PBLUC_HILL_SLOPE 7.31, PBLUC_R_SQUARED 0.396, read-out: LUCIFERASE INFECTION ASSAY - IC50): 3.55 µM |
| CNc1nc2cnc(Nc3cccc(NC(C)=O)c3)cc2n1-c1cccc(F)c1 | > 10 µM | IC50 (HEPG2TOX_HILL_SLOPE 2.07, HEPG2TOX_R_SQUARED 0.855, PBLUC_HILL_SLOPE 1.72, PBLUC_R_SQUARED 0.4, read-out: LUCIFERASE INFECTION ASSAY - IC50): 3.92 µM |
| c1ccc(-c2ccnc3c2ccc2c(-c4ccccc4)ccnc23)cc1 | 1.74 µM | IC50 (HEPG2TOX_HILL_SLOPE 2.07, HEPG2TOX_R_SQUARED 0.947, PBLUC_HILL_SLOPE 9.72, PBLUC_R_SQUARED 0.861, read-out: LUCIFERASE INFECTION ASSAY - IC50): 1.39 µM |

— ChEMBL document CHEMBL4483862, “Open-source discovery of chemical leads for next-generation chemoprotective antimalarials” (2018)
